Legend:
CDK1/cyclin E = CDK1/cyclin E (Homo sapiens, UniProt P06493); details: 1 μM; Run 1, Run 2
GRK3 = target: T1, GRK3 (Homo sapiens, UniProt P35626); details: 1 μM; Run 1, Run 2
T1 sequence (P35626 1-688): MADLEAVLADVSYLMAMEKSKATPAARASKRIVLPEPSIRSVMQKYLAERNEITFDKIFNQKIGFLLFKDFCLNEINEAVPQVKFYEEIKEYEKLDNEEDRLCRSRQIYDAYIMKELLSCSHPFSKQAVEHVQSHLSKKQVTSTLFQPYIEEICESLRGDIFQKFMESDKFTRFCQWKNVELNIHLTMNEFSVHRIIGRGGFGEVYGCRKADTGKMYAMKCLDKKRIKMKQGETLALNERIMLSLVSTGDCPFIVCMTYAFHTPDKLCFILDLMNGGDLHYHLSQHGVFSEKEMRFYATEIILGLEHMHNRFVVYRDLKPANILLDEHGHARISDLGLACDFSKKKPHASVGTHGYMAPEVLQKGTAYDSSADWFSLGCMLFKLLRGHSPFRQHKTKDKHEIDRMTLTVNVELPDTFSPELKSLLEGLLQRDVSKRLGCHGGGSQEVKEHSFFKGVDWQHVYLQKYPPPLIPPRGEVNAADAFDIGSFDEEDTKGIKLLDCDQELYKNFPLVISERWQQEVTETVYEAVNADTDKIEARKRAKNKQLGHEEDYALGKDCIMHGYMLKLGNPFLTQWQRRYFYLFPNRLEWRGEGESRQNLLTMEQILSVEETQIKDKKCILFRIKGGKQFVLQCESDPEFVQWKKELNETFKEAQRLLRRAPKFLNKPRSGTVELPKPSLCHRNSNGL

Haspin = target: T2, Haspin (Homo sapiens, UniProt Q8TF76); details: 1 μM; Run 1, Run 2
T2 sequence (Q8TF76 1-798): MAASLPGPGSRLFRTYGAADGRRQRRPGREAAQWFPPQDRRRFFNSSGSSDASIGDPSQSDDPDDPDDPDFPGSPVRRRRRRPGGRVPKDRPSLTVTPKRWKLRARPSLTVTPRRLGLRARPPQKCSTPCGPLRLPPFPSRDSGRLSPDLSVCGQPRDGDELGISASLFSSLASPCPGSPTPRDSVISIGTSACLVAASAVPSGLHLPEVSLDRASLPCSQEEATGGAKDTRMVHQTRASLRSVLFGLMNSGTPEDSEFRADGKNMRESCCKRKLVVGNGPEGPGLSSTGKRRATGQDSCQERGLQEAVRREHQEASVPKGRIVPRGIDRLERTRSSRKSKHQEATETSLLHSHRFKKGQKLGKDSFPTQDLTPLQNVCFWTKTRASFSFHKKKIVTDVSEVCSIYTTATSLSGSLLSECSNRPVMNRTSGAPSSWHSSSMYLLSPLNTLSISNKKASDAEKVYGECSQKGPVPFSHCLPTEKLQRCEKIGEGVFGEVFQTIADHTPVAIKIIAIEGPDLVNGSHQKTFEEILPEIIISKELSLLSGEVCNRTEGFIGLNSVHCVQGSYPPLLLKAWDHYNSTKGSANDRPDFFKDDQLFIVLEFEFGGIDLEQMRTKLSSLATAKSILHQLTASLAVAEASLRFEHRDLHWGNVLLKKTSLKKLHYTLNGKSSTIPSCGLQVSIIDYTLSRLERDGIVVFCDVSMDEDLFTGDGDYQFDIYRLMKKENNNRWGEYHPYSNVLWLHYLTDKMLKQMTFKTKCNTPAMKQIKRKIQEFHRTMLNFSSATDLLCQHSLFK

MLK1/MAP3K9 = MLK1/MAP3K9 (Homo sapiens, UniProt P80192); details: 1 μM; Run 1, Run 2
MLK1/MAP3K9, sequence (P80192 whole entry): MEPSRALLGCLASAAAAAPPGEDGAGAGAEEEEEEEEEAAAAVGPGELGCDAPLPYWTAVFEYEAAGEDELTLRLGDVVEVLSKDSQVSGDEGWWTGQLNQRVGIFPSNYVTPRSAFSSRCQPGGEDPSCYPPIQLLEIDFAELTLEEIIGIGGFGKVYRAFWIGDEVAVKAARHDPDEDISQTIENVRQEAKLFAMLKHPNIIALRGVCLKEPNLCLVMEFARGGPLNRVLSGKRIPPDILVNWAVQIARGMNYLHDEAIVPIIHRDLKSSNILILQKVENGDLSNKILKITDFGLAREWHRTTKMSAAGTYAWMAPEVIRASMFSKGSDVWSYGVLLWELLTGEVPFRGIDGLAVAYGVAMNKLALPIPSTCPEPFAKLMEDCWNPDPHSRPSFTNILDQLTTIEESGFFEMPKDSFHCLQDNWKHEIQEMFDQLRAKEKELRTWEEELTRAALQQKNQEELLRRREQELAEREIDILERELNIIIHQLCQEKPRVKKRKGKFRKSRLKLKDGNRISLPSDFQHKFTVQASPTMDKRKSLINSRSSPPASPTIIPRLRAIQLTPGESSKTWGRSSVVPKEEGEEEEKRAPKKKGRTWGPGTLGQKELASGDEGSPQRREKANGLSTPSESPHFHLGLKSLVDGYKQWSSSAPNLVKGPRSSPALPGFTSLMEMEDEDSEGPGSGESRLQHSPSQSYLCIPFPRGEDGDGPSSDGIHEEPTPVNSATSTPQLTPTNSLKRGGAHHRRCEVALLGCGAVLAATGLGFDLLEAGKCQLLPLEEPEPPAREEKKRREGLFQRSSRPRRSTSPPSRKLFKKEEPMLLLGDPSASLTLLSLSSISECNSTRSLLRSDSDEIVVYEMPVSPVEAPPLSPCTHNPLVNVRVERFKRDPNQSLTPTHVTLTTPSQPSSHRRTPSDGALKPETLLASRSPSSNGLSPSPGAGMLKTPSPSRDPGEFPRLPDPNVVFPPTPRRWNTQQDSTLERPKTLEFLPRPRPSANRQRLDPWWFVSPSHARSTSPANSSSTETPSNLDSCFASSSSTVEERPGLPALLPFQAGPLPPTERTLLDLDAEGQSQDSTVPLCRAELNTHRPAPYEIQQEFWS

P38g = target: T3, P38g (Homo sapiens, UniProt P53778); details: 1 μM; Run 1, Run 2
T3 sequence (P53778 1-367): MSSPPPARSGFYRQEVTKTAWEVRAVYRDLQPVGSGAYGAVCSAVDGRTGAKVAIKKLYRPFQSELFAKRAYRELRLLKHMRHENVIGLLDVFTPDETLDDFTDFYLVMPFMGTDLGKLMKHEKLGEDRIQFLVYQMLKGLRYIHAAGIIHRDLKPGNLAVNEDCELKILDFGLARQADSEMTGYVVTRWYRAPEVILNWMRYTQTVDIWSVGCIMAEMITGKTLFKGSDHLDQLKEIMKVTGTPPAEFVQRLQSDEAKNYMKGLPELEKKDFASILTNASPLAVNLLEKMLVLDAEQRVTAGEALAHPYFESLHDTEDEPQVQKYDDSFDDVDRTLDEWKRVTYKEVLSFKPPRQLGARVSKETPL

FGFR4 = FGFR4 (Homo sapiens, UniProt P22455); test: biochemical; details: read-out: % enzyme activity, 1 μM; Run 1, Run 2
FGFR4, sequence (P22455 22-802): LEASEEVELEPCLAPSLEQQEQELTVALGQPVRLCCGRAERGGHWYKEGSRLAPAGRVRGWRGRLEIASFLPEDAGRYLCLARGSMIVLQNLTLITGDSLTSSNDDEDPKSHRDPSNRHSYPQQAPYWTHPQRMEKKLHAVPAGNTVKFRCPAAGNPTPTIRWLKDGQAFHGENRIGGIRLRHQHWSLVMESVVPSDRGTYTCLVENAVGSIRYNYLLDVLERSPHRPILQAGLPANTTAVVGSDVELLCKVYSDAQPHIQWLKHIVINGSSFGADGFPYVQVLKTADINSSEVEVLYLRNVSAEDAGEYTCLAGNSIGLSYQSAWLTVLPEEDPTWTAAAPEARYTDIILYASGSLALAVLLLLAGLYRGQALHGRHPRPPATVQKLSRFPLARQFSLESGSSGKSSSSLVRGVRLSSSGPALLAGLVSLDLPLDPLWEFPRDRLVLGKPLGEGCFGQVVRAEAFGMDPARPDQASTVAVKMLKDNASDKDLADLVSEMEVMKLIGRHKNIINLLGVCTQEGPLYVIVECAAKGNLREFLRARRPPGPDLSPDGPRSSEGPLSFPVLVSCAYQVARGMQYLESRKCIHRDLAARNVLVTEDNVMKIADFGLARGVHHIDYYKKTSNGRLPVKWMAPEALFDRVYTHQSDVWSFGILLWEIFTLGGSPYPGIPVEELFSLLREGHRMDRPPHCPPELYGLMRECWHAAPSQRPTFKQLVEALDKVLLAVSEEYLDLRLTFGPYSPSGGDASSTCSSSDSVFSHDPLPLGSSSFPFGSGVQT

TNK1 = target: T4, TNK1 (Homo sapiens, UniProt Q13470); test: biochemical; details: read-out: % enzyme activity, 1 μM; Run 1, Run 2
T4 sequence (Q13470 1-666): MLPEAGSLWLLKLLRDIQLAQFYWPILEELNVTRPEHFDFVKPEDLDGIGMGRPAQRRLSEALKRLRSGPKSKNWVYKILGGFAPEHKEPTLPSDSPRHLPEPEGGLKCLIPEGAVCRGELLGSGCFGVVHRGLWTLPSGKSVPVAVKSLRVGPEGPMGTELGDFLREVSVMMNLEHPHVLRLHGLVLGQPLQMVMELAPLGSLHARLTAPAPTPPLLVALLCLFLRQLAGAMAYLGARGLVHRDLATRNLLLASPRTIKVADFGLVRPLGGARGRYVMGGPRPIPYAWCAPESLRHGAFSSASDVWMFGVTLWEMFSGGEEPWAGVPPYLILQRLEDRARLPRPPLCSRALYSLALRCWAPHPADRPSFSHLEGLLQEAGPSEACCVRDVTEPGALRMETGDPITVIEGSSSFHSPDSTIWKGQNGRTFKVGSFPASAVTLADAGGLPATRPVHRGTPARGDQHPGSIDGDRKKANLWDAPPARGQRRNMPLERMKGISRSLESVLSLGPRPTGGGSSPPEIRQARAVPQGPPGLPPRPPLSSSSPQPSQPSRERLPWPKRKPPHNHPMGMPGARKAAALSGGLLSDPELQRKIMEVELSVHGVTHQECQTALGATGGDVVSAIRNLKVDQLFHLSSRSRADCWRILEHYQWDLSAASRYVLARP

CDK1/cyclin E, sequence (P24864 whole entry): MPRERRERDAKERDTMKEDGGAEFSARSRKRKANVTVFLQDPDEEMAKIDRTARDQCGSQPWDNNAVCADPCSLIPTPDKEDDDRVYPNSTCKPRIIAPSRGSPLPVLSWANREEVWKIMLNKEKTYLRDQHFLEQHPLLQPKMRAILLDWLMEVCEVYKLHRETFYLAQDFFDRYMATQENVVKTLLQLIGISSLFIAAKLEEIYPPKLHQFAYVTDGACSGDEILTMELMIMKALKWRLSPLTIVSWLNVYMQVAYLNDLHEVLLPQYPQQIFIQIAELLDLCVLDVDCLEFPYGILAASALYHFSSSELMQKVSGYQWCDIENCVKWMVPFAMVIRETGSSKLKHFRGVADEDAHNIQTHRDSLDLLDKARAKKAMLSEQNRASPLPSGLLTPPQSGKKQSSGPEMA
CDK1/cyclin E, sequence (P06493 whole entry): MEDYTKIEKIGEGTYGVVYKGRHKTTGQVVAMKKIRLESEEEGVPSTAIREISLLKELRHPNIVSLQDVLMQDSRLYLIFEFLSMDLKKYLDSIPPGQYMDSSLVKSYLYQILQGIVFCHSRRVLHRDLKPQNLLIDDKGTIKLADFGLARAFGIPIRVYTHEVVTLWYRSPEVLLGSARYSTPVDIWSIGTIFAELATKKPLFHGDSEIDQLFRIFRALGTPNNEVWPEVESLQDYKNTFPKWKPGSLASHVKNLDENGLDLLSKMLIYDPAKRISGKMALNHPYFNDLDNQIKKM

Compound	% enzyme activity (CDK1/cyclin E) [%]	% enzyme activity (GRK3) [%]	% enzyme activity (Haspin) [%]	% enzyme activity (MLK1/MAP3K9) [%]	% enzyme activity (P38g) [%]	remaining activity at 1 µM (FGFR4) [%]	remaining activity at 1 µM (TNK1) [%]
COc1cc(-c2cncc(-c3ccc(N4CCN(C)CC4)cc3)c2C)cc(F)c1C(N)=O [Compound 26a, 2-Fluoro-6-methoxy-4-(4-methyl-5-(4-(4-methylpiperazin-1-yl)phenyl)pyridin-3-yl)benzamide]	97.19	94.07	82.77	110.44	107.36	98.2	105
COc1cc(-c2cncc(-c3ccc(N4C[C@@H](C)N(C)[C@@H](C)C4)cc3)c2C)cc(F)c1C(N)=O [Compound 26c, 2-Fluoro-6-methoxy-4-(4-methyl-5-(4-((3R,5S)-3,4,5-trimethylpiperazin-1-yl)phenyl)pyridin-3-yl)benzamide]	91.92	95.20	82.31	98.95	105.83	99.6	98.6
